{"source": "ChEMBL document CHEMBL5620394", "about": "“Synthesis of new antiproliferative 1,3,4-substituted-pyrrolo[3,2-c]quinoline derivatives, biological and in silico insights” (Eur J Med Chem, 2023)", "key": {"[1]": {"test_system": "UACC-257", "assay": "Antiproliferative activity against human UACC-257 cells assessed as cell growth at 10 uM incubated for 48 hrs by sulforhodamine B assay relative to control", "format": "functional", "settings": "read-out: Activity"}, "[2]": {"test_system": "LA-N-5", "assay": "Antiproliferative activity against human LA-N-5 cells assessed as inhibition of cell growth at 10 uM incubated for 4 hrs by MTS assay", "format": "functional, cell-based"}, "[3]": {"test_system": "NCI-H522", "assay": "Antiproliferative activity against human NCI-H522 cells assessed as cell growth at 10 uM incubated for 48 hrs by sulforhodamine B assay relative to control", "format": "functional", "settings": "read-out: Activity"}, "[4]": {"test_system": "CCRF-CEM", "assay": "Antiproliferative activity against human CCRF-CEM cells assessed as cell growth at 10 uM incubated for 48 hrs by sulforhodamine B assay relative to control", "format": "functional", "settings": "read-out: Activity"}, "[5]": {"test_system": "NCI-H292", "assay": "Antiproliferative activity against human NCI-H292 cells assessed as inhibition of cell growth at >50 uM incubated for 4 hrs by MTS assay", "format": "functional, cell-based"}, "[6]": {"test_system": "UACC-62", "assay": "Antiproliferative activity against human UACC-62 cells assessed as cell growth at 10 uM incubated for 48 hrs by sulforhodamine B assay relative to control", "format": "functional", "settings": "read-out: Activity"}, "[7]": {"test_system": "MOLT-4", "assay": "Antiproliferative activity against human MOLT-4 cells assessed as cell growth at 10 uM incubated for 48 hrs by sulforhodamine B assay relative to control", "format": "functional", "settings": "read-out: Activity"}, "[8]": {"assay": "Antiproliferative activity against human LA-N-5 cells assessed as inhibition of cell growth incubated for 4 hrs by MTS assay", "format": "functional"}, "[9]": {"test_system": "PC-3", "assay": "Antiproliferative activity against human PC-3 cells assessed as cell growth at 10 uM incubated for 48 hrs by sulforhodamine B assay relative to control", "format": "functional", "settings": "read-out: Activity"}, "[10]": {"test_system": "HeLa", "assay": "Antiproliferative activity against human HeLa cells assessed as inhibition of cell growth at >50 uM incubated for 4 hrs by MTS assay", "format": "functional, cell-based"}, "[11]": {"test_system": "MCF7", "assay": "Antiproliferative activity against human MCF7 cells assessed as inhibition of cell growth at >50 uM incubated for 4 hrs by MTS assay", "format": "functional, cell-based"}, "[12]": {"test_system": "CAKI-1", "assay": "Antiproliferative activity against human CAKI-1 cells assessed as cell growth at 10 uM incubated for 48 hrs by sulforhodamine B assay relative to control", "format": "functional", "settings": "read-out: Activity"}, "[13]": {"test_system": "RPMI-8226", "assay": "Antiproliferative activity against human RPMI-8226 cells assessed as cell growth at 10 uM incubated for 48 hrs by sulforhodamine B assay relative to control", "format": "functional", "settings": "read-out: Activity"}, "[14]": {"test_system": "NCI-H226", "assay": "Antiproliferative activity against human NCI-H226 cells assessed as cell growth at 10 uM incubated for 48 hrs by sulforhodamine B assay relative to control", "format": "functional", "settings": "read-out: Activity"}, "[15]": {"test_system": "SNB-75", "assay": "Antiproliferative activity against human SNB-75 cells assessed as cell growth at 10 uM incubated for 48 hrs by sulforhodamine B assay relative to control", "format": "functional", "settings": "read-out: Activity"}, "[16]": {"test_system": "SR", "assay": "Antiproliferative activity against human SR cells assessed as cell growth at 10 uM incubated for 48 hrs by sulforhodamine B assay relative to control", "format": "functional", "settings": "read-out: Activity"}, "[17]": {"test_system": "HeLa", "assay": "Antiproliferative activity against human HeLa cells assessed as inhibition of cell growth incubated for 4 hrs by MTS assay", "format": "functional"}, "[18]": {"test_system": "LA-N-5", "assay": "Antiproliferative activity against human LA-N-5 cells assessed as reduction in cell growth at 10 to 100 uM incubated for 4 hrs by MTS assay", "format": "functional, cell-based", "settings": "dose 10-100 µM"}, "[19]": {"test_system": "MDA-MB-231", "assay": "Antiproliferative activity against human MDA-MB-231 cells assessed as cell growth at 10 uM incubated for 48 hrs by sulforhodamine B assay relative to control", "format": "functional", "settings": "read-out: Activity"}, "[20]": {"test_system": "T47D", "assay": "Antiproliferative activity against human T47D cells assessed as cell growth at 10 uM incubated for 48 hrs by sulforhodamine B assay relative to control", "format": "functional", "settings": "read-out: Activity"}, "[21]": {"test_system": "K562", "assay": "Antiproliferative activity against human K562 cells assessed as cell growth at 10 uM incubated for 48 hrs by sulforhodamine B assay relative to control", "format": "functional", "settings": "read-out: Activity"}, "[22]": {"test_system": "786-0", "assay": "Antiproliferative activity against human 786-0 cells assessed as cell growth at 10 uM incubated for 48 hrs by sulforhodamine B assay relative to control", "format": "functional", "settings": "read-out: Activity"}, "[23]": {"test_system": "MCF7", "assay": "Antiproliferative activity against human MCF7 cells assessed as inhibition of cell growth incubated for 4 hrs by MTS assay", "format": "functional"}, "[24]": {"test_system": "HL-60", "assay": "Antiproliferative activity against human HL-60 cells assessed as cell growth at 10 uM incubated for 48 hrs by sulforhodamine B assay relative to control", "format": "functional", "settings": "read-out: Activity"}, "[25]": {"test_system": "HT-29", "assay": "Antiproliferative activity against human HT-29 cells assessed as cell growth at 10 uM incubated for 48 hrs by sulforhodamine B assay relative to control", "format": "functional", "settings": "read-out: Activity"}, "[26]": {"test_system": "MCF7", "assay": "Antiproliferative activity against human MCF7 cells assessed as cell growth at 10 uM incubated for 48 hrs by sulforhodamine B assay relative to control", "format": "functional", "settings": "read-out: Activity"}, "[27]": {"test_system": "UO-31", "assay": "Antiproliferative activity against human UO-31 cells assessed as cell growth at 10 uM incubated for 48 hrs by sulforhodamine B assay relative to control", "format": "functional", "settings": "read-out: Activity"}, "[28]": {"assay": "Antiproliferative activity against human 16HBE14o- cells assessed as inhibition of cell growth incubated for 4 hrs by MTS assay", "format": "toxicity, cell-based", "settings": "read-out: IG50"}}, "note": "The source made the active and inactive calls. No cut-off for these calls is given here."}
{"smiles": "CCn1c(C)c(C(C)=O)c2c(-c3ccccc3)nc3ccccc3c21", "values": [{"measurement": "growth at 10 µM", "setting": "[1]", "result": 93.3, "unit": "%"}, {"measurement": "Activity", "setting": "[2]", "result": "Active"}, {"measurement": "growth at 10 µM", "setting": "[3]", "result": 92.6, "unit": "%"}, {"measurement": "growth at 10 µM", "setting": "[4]", "result": 88.5, "unit": "%"}, {"measurement": "Activity", "setting": "[5]", "result": "Active"}, {"measurement": "growth at 10 µM", "setting": "[6]", "result": 88.9, "unit": "%"}, {"measurement": "growth at 10 µM", "setting": "[7]", "result": 95.2, "unit": "%"}, {"measurement": "IG50", "setting": "[8]", "result": 1, "unit": "µM"}, {"measurement": "growth at 10 µM", "setting": "[9]", "result": 80.5, "unit": "%"}, {"measurement": "Activity", "setting": "[10]", "result": "Active"}, {"measurement": "Activity", "setting": "[11]", "result": "Active"}, {"measurement": "growth at 10 µM", "setting": "[12]", "result": 93.8, "unit": "%"}, {"measurement": "growth at 10 µM", "setting": "[13]", "result": 79.6, "unit": "%"}, {"measurement": "growth at 10 µM", "setting": "[14]", "result": 68.3, "unit": "%"}, {"measurement": "growth at 10 µM", "setting": "[15]", "result": 85.1, "unit": "%"}, {"measurement": "growth at 10 µM", "setting": "[16]", "result": 91.7, "unit": "%"}, {"measurement": "IG50", "setting": "[17]", "result": 10, "unit": "µM"}, {"measurement": "Activity", "setting": "[18]", "result": "Active"}, {"measurement": "growth at 10 µM", "setting": "[19]", "result": 91.1, "unit": "%"}, {"measurement": "growth at 10 µM", "setting": "[20]", "result": 87, "unit": "%"}, {"measurement": "growth at 10 µM", "setting": "[21]", "result": 99.2, "unit": "%"}, {"measurement": "growth at 10 µM", "setting": "[22]", "result": 98.8, "unit": "%"}, {"measurement": "IG50", "setting": "[23]", "result": 10, "unit": "µM"}, {"measurement": "growth at 10 µM", "setting": "[24]", "result": 100, "unit": "%"}, {"measurement": "growth at 10 µM", "setting": "[25]", "result": 108, "unit": "%"}, {"measurement": "growth at 10 µM", "setting": "[26]", "result": 93.6, "unit": "%"}, {"measurement": "growth at 10 µM", "setting": "[27]", "result": 82.5, "unit": "%"}, {"measurement": "GI50 at 4 h", "setting": "[28]", "result": 10, "unit": "µM"}]}
